Reference: ChEMBL document CHEMBL4002596, “Hydroxylated biphenyls as tyrosinase inhibitor: A spectrophotometric and electrochemical study” (Eur J Med Chem, 2017)
Active and inactive are the calls of the source. No cut-off for these calls is given here.

What was measured:
[1] = target: T1, Mushroom tyrosinase (Agaricus bisporus) (UniProt O42713+Q00024+C7FF04+C7FF05); assay: Inhibition of mushroom tyrosinase assessed as reduction in caffeic acid oxidation measured after 6 mins by UV-Vis spectrophotometric method
[2] = target: T1, Mushroom tyrosinase (Agaricus bisporus); assay: Inhibition of immobilized mushroom tyrosinase diphenolase activity assessed as reduction in caffeic acid oxidation at 50 uM by amperometric tyrosinase biosensor method
[3] = tested on: Lymphocyte; assay: Cytotoxicity against human lymphocytes; assay type: cell-based
[4] = Aqueous solubility of the compound; assay type: physicochemical; conditions: buffer
[5] = target: T1, Mushroom tyrosinase (Agaricus bisporus); assay: Inhibition of mushroom tyrosinase diphenolase activity assessed as reduction in caffeic acid oxidation measured after 6 mins by UV-Vis spectrophotometric method
[6] = target: T1, Mushroom tyrosinase (Agaricus bisporus); assay: Inhibition of mushroom tyrosinase monophenolase activity assessed as reduction in lag time of enzymatic reaction at 50 uM using caffeic acid as substrate by amperometric tyrosinase biosensor method

Row | Structure (SMILES) | inhibition [1] | inhibition [2] | solubility [4] | inhibition [5] [%] | inhibition [6] | IC50 [3] [µM]
1 | Oc1cccc(O)c1-c1c(O)cccc1O | Active | Active |  |  |  | 
2 | Oc1ccc2c(c1-c1c(O)ccc3c1OCO3)OCO2 | Active | 82% |  |  | Active | 
3 | COc1cc(C)c(-c2cc(O)c(OC)cc2C)cc1O |  | Active |  |  |  | 
4 | Oc1ccccc1-c1ccccc1O | 10% | 10 to 20% |  |  |  | 
5 | COc1cc(O)cc(-c2cc(O)cc(OC)c2OC)c1OC | Active | Active |  |  |  | 

More lines, main results first:

Row | inhibition [1] | inhibition [2] | solubility [4] | inhibition [5] [%] | inhibition [6] | Structure (SMILES) | IC50 [3] [µM]
6 | Active | Active |  |  |  | C=CCc1cc(-c2ccc(O)c(CC=C)c2)ccc1O | < 100
7 | Active | Active | Soluble | 60 |  | Oc1ccc(-c2ccc(O)c(O)c2)cc1O | 
8 | Active | Active |  |  |  | Oc1ccc(-c2ccc(O)cc2)cc1 | 
